Laboratory results as given in patent US11083723B2, “Use of roluperidone to treat negative symptoms and disorders, increase neuroplasticity, and promote neuroprotection” (Minerva Neurosciences, Inc., priority 2018, dated 2021).
Where a name gives a salt, the structure may show the parent alone.

Key:
5-HT2A receptors = 5-HT2A receptors (Homo sapiens, UniProt P28223); assay: Molecular binding profile, 5-HT2A
dopaminergic receptors = assay: Receptor affinity, dopaminergic; assay type: binding
[1] = tested on: BDNF release by primary rat astrocytes; assay: BDNF release by primary rat astrocytes, in situ ELISA; assay type: cell-based; details: 5 days incubation
Description: At confluency, astrocytes were plated in 96-well Nunc MaxiSorp surface polystyrene flat-bottom immunoplate precoated with poly-D-lysine during 30 min. and an anti-BDNF monoclonal antibody overnight at 4° C. at a density of 30,000 cells/well. […] At the end of drug treatment, cells were carefully washed with TBST (20 mM Tris-HCl (pH 7.6), 150 mM NaCl, and 0.05% (vol/vol) Tween 20). The plate was then incubated with the polyclonal anti-human BDNF antibody overnight and BDNF quantified. Experimental Protocol-In Situ ELISA on Primary Astrocytes Rat Primary Culture of Astrocytes Rat mixed glial cells were cultured as described by McCarthy et al. Primary rat glial cells were prepared from the cortical of newborn Wistar rats (1 day). […] Medium was changed 3 times per week. At confluency, astrocytes were plated in 96-well Nunc MaxiSorp surface polystyrene flat-bottom immunoplate precoated with poly-D-lysine during 30 min (Sigma, Ref: […], batch: SLBS8705) and an anti-BDNF monoclonal antibody overnight at 4° C. at a density of 30,000 cells/well. (Balkowiec and Katz “Cellular Mechanisms Regulating Activity-Dependent Release of Native Brain-Derived Neurotrophic Factor from Hippocampal Neurons” J. […] At the end of drug treatment, cells were carefully washed with TBST (20 mM Tris-HCl (pH 7.6), 150 mM NaCl, and 0.05% (vol/vol) Tween 20). The plate was then incubated with the polyclonal anti-human BDNF antibody overnight. The amount of specifically bound polyclonal antibody, which when exposed to chromogenic substrate (TMB reagent; Promega), changes color in proportion to the amount of BDNF present in the sample. The color intensity was quantified by measuring the absorbance at 450 nm. BDNF standards, ranging in concentration from 0 to 500 pg/mL were added in parallel wells in the same medium than hippocampal neurons.

Sequence of 5-HT2A receptors (P28223 whole entry): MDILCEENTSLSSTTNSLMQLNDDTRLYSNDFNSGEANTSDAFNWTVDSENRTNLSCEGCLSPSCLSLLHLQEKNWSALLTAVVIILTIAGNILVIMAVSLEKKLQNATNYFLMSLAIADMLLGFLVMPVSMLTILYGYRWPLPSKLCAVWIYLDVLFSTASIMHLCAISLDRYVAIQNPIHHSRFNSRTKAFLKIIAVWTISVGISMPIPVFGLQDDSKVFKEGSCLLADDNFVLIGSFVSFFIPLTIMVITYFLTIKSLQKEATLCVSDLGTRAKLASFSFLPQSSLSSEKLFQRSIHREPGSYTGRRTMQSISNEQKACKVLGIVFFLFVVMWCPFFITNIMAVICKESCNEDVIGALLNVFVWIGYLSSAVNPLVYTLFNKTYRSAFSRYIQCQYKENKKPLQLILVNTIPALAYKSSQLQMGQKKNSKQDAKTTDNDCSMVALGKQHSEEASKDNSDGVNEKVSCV

O=C(CN1CCC(CN2Cc3ccccc3C2=O)CC1)c1ccc(F)cc1 [Compound (I), 1H-Isoindol-1-one, 2-[[1-[2-(4-Fluorophenyl)-2-oxoethyl]-4-piperidinyl]methyl]-2,3-dihydro-, hydrochloride, hydrate (1:1:2)]
Ki (5-HT2A receptors): 7.5 nM
affinity for dopaminergic receptors (dopaminergic receptors): no affinity
BDNF release astrocytes, % increase of control conditions ([1]; 3 nM): 6.8%
BDNF release astrocytes, % increase of control conditions ([1]; 10 nM): 16.2%
BDNF release astrocytes, % increase of control conditions ([1]; 30 nM): 17.1%
BDNF release astrocytes, % increase of control conditions ([1]; 100 nM): 18.9%
BDNF release astrocytes, % increase of control conditions ([1]; 300 nM): 29.5%
BDNF release astrocytes, % increase of control conditions ([1]; 1 μM): 16.9%
